# Where a name gives a salt, the structure may show the parent alone.
# Tested on: N1^+/− ECs
# Test: Validation trials of screen candidates by targeted RNA-seq with the trained KNN algorithm
# Format: cell-based, human
# Conditions: duplicate or triplicate; one or more replicates classified as WT
# Description: (§1) Starting on day 15 of differentiation, WT ECs were exposed to 10 μM DMSO (dimethyl sulfoxide) (n=80) while isogenic N1^+/− ECs were exposed to either 10 μM DMSO (n=80) or one of the small molecules from the LOPAC (1280 molecules) (Sigma LO1280) or Sheng Ding (315 molecules) chemical libraries. DMSO or small molecules were renewed with EC media (ScienCell #1001) changes on alternating days until the cells were ultimately collected for analysis on day 21. ECs were imaged using the IN Cell Analyzer on day 21 to evaluate morphology and cell death; wells with extensive cell death were eliminated from final analyses. For validation experiments, promising small molecules identified from the initial screen were applied to N1^+/− ECs in duplicate or triplicate along with controls of DMSO-exposed WT and N1^+/− ECs (n=4 each) using the same process as the initial screen described above.
# (§2) ECs were lysed and RNA was isolated using the Qiagen RNeasy 96-well purification kit. RNA was diluted so that it was between the 10 pg-1 ng range accepted by the Cellular Research Precise targeted RNA-seq (RNA sequencing) system. Targeted RNA-seq libraries were prepared as per the Cellular Research Precise protocol (Rev 03092015), which includes both molecule and sample barcoding. The selected 119 target genes (see Table 1) included 3 low-expressing housekeeping genes for normalization (CHMP2A, C1orf43, REEP5) and either predicted central regulatory nodes or peripheral genes positioned within varied regions of the N1 network to permit identification of small molecules that affected central nodes as well as those that may have a synergistic effect in combination due to regulating different aspects of the network. Briefly, RNA was added to the Precise Encoding Plate containing indexed dT primer, dNTPs, and Spike-in mRNA controls and incubated at 65° C. for 3 minutes followed by cooling on ice. A master-mix of RT enzyme, RNase inhibitor, and buffer was then added to the samples, and they were incubated at 42° C. for 30 minutes followed by 80° C. for 5 minutes. Each plate of samples was combined into a single 2 ml tube and purified with AMPureXP beads. N1 PCR master-mix was added and samples were incubated for 94° C. for 2 minutes, followed by 15 cycles of 94° C. for 30 seconds, 55° C. for 3 minutes, and 68° C. for 1 minute, followed by 68° C. for 7 minutes. Samples were purified with AMPureXP beads and N2 PCR master-mix was added. Samples were incubated with the same thermal cycler program as above for 12 cycles. These final libraries were then purified with AMPureXP beads and analyzed for quality and concentration by Agilent Bioanalyzer and Illumina Library Quantification Kit (KAPA Biosystems), respectively. Libraries were normalized to equivalent concentration and pooled for paired-end 100 bp sequencing on an Illumina HiSeq 2500 instrument.
# Sequencing data was analyzed using Cellular Research Precise Analysis Pipeline on the SevenBridges platform, which included analyzing sequencing quality with FASTQC, trimming adapters and filtering reads, demultiplexing based on sample barcodes, aligning reads with Bowtie 2, and determining the number of unique molecular indices per gene. Network inference was based on mutual information of gene expression from all DMSO- and small molecule-exposed samples as described in Margolin et al., BMC Bioinformatics. 2006; 7 Suppl 1:S7. Network diagram was generated using NetworkX (Hagberg et al., Exploring Network Structure, Dynamics, and Function using NetworkX. SciPy. 2008) based on network connections inferred from the small molecule screen data as described above with colors based on whole transcriptome RNA-seq gene expression of isogenic N1^+/− compared to WT ECs.
# Promising small molecules were identified using either K-nearest neighbor (KNN) or hierarchical clustering algorithms. […]
row,SMILES,KNN classification of treated N1^+/− ECs in validation trials
1,O[C@@](CCN1CCCCC1)(c1ccccc1)[C@@H]1CC2C=CC1C2 (mixture of isomers) [Biperiden_hydrochloride],classified as WT
2,"NC(=O)c1cc(N2CC2)c([N+](=O)[O-])cc1[N+](=O)[O-] [CB_1954, 5-(1-aziridinyl)-2,4-dinitrobenzamide]",classified as WT
3,C=C1[C@@H](O)C2/C=C/C[C@H](C)CCCC(=O)/C=C/C(=O)O[C@]23CN[C@@H](Cc2ccccc2)[C@@H]3[C@@H]1C (some centres unmarked) [Cytochalasin],classified as WT
4,"CC(C)C[C@H](NC(=O)OCC1c2ccccc2-c2ccccc21)C(=O)O [Fmoc-leu, Fmoc-Leucine]",classified as WT
5,Cc1ccnc(NS(=O)(=O)c2ccc(NC(=O)Nc3ccc(S(=O)(=O)Nc4nccc(C)n4)cc3)cc2)n1 [GSK837149A],classified as WT
6,"NCCCCN [Putrescine dihydrochloride, Butane-1,4-diamine]",classified as WT
7,CC(C)(C(=O)NCC(F)(F)C(F)(F)F)C(=O)N[C@@H]1C(=O)Nc2ccccc2-c2ccccc21 [RO-4929097],classified as WT

# Tested on: N1^+/− ECs
# Test: Whole transcriptome RNA-seq of N1^+/− ECs treated with network-correcting molecules
# Format: cell-based, human
# Conditions: FIG. 2A
# Description: ECs were lysed and RNA was isolated using the Qiagen RNeasy Micro purification kit. RNA-seq libraries were constructed using the Clontech SMRTer Stranded RNA-seq Library Prep Kit for Illumina per kit protocol. Libraries were analyzed by Agilent Bioanalyzer, normalized to equivalent concentration, pooled, gel purified, and sequenced 75 bp paired-end on an Illumina NextSeq instrument with 10% PhiX.
# Sequencing quality was assessed with FASTQC (located on the web by placing “www.” in front of “bioinformatics.babraham.ac.uk/projects/fastqc/”). Reads were aligned to the hg19 (Homo sapiens assembly February 2009) transcriptome and genome using the Spliced Transcripts Alignment to a Reference (STAR) Aligner (Dobin et al., Bioinformatics. 2012; 29:15-21) and differential expression was analyzed using Cuffdiff (Trapnell et al., Nat Biotechnol. 2012; 31:46-53). HOPACH was used for clustering with the correlation metric (van der Laan and Pollard; located on the web by placing “www.” in front of “bioconductor.org/packages/devel/bioc/manuals/hopach/man/hopach.pdf”. GO analyses were completed using GO-Elite and ToppGene (Chen et al., Nucleic Acids Research. 2009; 37:W305-W311; Zambon et al., Bioinformatics. 2012; 28:2209-2210). Network diagrams were generated using NetworkX (Hagberg et al., SciPy. 2008) based on network connections inferred from mRNA-seq gene expression of isogenic N1^+/− compared to WT ECs with colors based on whole transcriptome RNA-seq gene expression of DMSO- vs small molecule-treated WT and N1^+/− ECs.
SMILES,effect on dysregulation of cell motility genes,repression of genes aberrantly activated in N1-haploinsufficient ECs,restoration of transcription of genes repressed in N1-haploinsufficient ECs
C=C1[C@@H](O)C2/C=C/C[C@H](C)CCCC(=O)/C=C/C(=O)O[C@]23CN[C@@H](Cc2ccccc2)[C@@H]3[C@@H]1C (some centres unmarked) [Cytochalasin],worsened the dysregulation,effective at downregulating arterial thrombosis and T cell signal genes,
Cc1ccnc(NS(=O)(=O)c2ccc(NC(=O)Nc3ccc(S(=O)(=O)Nc4nccc(C)n4)cc3)cc2)n1 [GSK837149A],,,restored transcription of a complementary group of genes involved in angiogenesis and cardiovascular development

# Same assay, conditions: FIG. 9A
row,SMILES,repressive effect on cadherin-11 mRNA expression
1,C=C1[C@@H](O)C2/C=C/C[C@H](C)CCCC(=O)/C=C/C(=O)O[C@]23CN[C@@H](Cc2ccccc2)[C@@H]3[C@@H]1C (some centres unmarked) [Cytochalasin],strongest repressive effect

# Same assay, conditions: FIGS. 2E, 3A
row,SMILES,restoration of the N1-dependent network as a whole
1,Cc1ccnc(NS(=O)(=O)c2ccc(NC(=O)Nc3ccc(S(=O)(=O)Nc4nccc(C)n4)cc3)cc2)n1 [GSK837149A],restored more complementary genes to XCT790

# Tested on: N1^+/− iPSC-derived ECs
# Test: Network-based small molecule screen by targeted RNA-seq of 119 genes (KNN and hierarchical clustering)
# Format: cell-based, human
# Conditions: initial screen of 1595 small molecules, treatment day 15 to day 21 of differentiation, KNN k=2
# Excerpt: TALEN-engineered isogenic human iPSCs that were either WT (wild-type) or N1^+/− were derived and characterized as detailed in Theodoris et al., Cell. 2015; 160:1072-1086. Isogenic iPSCs (induced pluripotent stem cells) were differentiated into ECs as previously described (Theodoris et al., 2015; White et al., Stem Cells. 2012; 31:92-103). On day 13 of the differentiation process, ECs were greater than 90% double-positive for CD31 (BD #558068) and CD144 (#FAB9381P) by FACS (fluorescence-activated cell sorting) analysis (FIGS. 9G-H). Small molecule experiments (described below) were conducted at day 15 of differentiation.
# as §1, §2
# Sequencing data was analyzed using Cellular Research Precise Analysis Pipeline on the SevenBridges platform, which included analyzing sequencing quality with FASTQC, trimming adapters and filtering reads, demultiplexing based on sample barcodes, aligning reads with Bowtie 2, and determining the number of unique molecular indices per gene. Network inference was based on mutual information of gene expression from all DMSO- and small molecule-exposed samples as described in Margolin et al., BMC Bioinformatics. […]
row,SMILES,KNN classification of network gene expression of treated N1^+/− ECs
1,CCCCC[C@H](O)/C=C/[C@H]1[C@H](O)CC(=O)[C@@H]1CCCCCCC(=O)O [Alprostadil],classified as WT
2,"NC(=O)c1cc(N2CC2)c([N+](=O)[O-])cc1[N+](=O)[O-] [CB_1954, 5-(1-aziridinyl)-2,4-dinitrobenzamide]",classified as WT
3,C=C1[C@@H](O)C2/C=C/C[C@H](C)CCCC(=O)/C=C/C(=O)O[C@]23CN[C@@H](Cc2ccccc2)[C@@H]3[C@@H]1C (some centres unmarked) [Cytochalasin],classified as WT
4,"CC(C)C[C@H](NC(=O)OCC1c2ccccc2-c2ccccc21)C(=O)O [Fmoc-leu, Fmoc-Leucine]",classified as WT
5,Cc1ccnc(NS(=O)(=O)c2ccc(NC(=O)Nc3ccc(S(=O)(=O)Nc4nccc(C)n4)cc3)cc2)n1 [GSK837149A],classified as WT
6,"OC1(c2ccc(Cl)cc2)CCN(Cc2c[nH]c3ccccc23)CC1 [L-741,626]",classified as WT
7,C=CCN1CC[C@]23c4c5ccc(O)c4O[C@H]2/C(=N/NC(=O)c2ccccc2)CC[C@@]3(O)[C@H]1C5 [Naloxone benzoylhydrazone],classified as WT
8,CCn1cc(C(=O)O)c(=O)c2cc(F)c(N3CCNCC3)cc21 [Norfloxacin],classified as WT
9,CC(C)(C(=O)NCC(F)(F)C(F)(F)F)C(=O)N[C@@H]1C(=O)Nc2ccccc2-c2ccccc21 [RO-4929097],classified as WT
10,"CC(C)(C)NCC(O)c1ccccc1Cl (centres unmarked) [Tulobuterol_hydrochloride, tulobuterol hydrochloride]",classified as WT
11,OCc1ccc(-c2nn(Cc3ccccc3)c3ccccc23)o1 [YC-1],classified as WT

# Same assay, conditions: initial screen, complete agglomeration method
row,SMILES,hierarchical clustering of transcriptional profile of treated N1-haploinsufficient ECs with WT ECs
1,CC(/C=C/c1cccc(Oc2ccc(F)cc2)c1)N(O)C(N)=O (centres unmarked) [BWB70C],cluster with WT ECs
2,C=CCc1ccccc1OCC(O)CNC(C)C (centres unmarked) [alprenolol],cluster with WT ECs
3,CCCCc1oc2ccccc2c1C(=O)c1cc(I)c(OCCN(CC)CC)c(I)c1 [amiodarone],cluster with WT ECs
4,C[N+](C)(C)CCOC(N)=O [carbachol],cluster with WT ECs
5,Cc1ccc(N(CC2=NCCN2)c2cccc(O)c2)cc1 [phentolamine mesylate],cluster with WT ECs
6,CN1C(C(=O)Nc2ccccn2)=C(O)c2ccccc2S1(=O)=O [piroxicam],cluster with WT ECs

# — patent US12599608B2, “Methods for treating cardiac valve disease” (The Regents of the University of California, priority 2018, dated 2026)
